Data published in US20140200215A1, “LYSOPHOSPHATIDIC ACID RECEPTOR ANTAGONISTS” (INTERMUNE, INC., priority 2013, published 2014).

Key:
Type in all cases: cell-based
[1] = system: primary fibroblasts (including lung, dermal), HFL-1, 3T3 and CHO cells expressing LPA1R; assay: LPA1 migration assay (Oris cell migration); details: inhibition of cell migration in response to chemoattractant (LPA, serum)
Excerpt: Migration of primary fibroblasts (including lung, dermal), HFL-1, 3T3 and CHO cells expressing LPA1R were monitored using the Oris™ assay (Platypus Technologies, Madison, Wis.). These cells were dye (Cell Tracker Green™) loaded and serum starved for 12-24 hrs. In response to chemoattractants such as LPA and serum, the cells migrated inward in to the exclusion (detection) zone. After fixing, fluorescent cells in the detection zone were counted using a high content reader. The ability of LPA1 antagonists to inhibit cell migration is quantified by plotting cell number vs. compound concentration and curve fitting the resulting dose-response curve to a 4 parameter logistic function.

Human LPA1 [2] = target: T1, Human LPA1 (Homo sapiens, UniProt Q92633); assay: LPA1 calcium flux assay; design: the full-length cDNA for human LPA1 is obtained by PCR of the reverse transcription reaction; expressed in transfected cells; details: human LPA1 expressing CHO cells, stimulated with 10 nM LPA; read-out: Ca Flux LPA1 IC50
Experimental: Establishment of a CHO Cell Line Stably Expressing Human LPA1
A 1.1 kb cDNA encoding the human LPA1 receptor is cloned from human lung. Human lung RNA (Clontech Laboratories, Inc. USA) is reverse transcribed using the RETROscript kit (Ambion, Inc.) and the full-length cDNA for human LPA1 is obtained by PCR of the reverse transcription reaction. The nucleotide sequence of the cloned human LPA1 is determined by sequencing and is confirmed to be identical to the published human LPA1 sequence (An et al. Biochem. Biophys. Res. Commun. 231:619 (1997). The cDNA is cloned into the pCDNA5 pcDNA5/FRT expression plasmid and is transfected in CHO cells using lipofectamine 2000 (Invitrogen Corp., USA). Clones stably expressing human LPA1 are selected using hygromycin and identified as cells that show Ca-influx in response to LPA.
LPA1 and LPA3 Calcium Flux Assays
Human LPA1 or LPA3 expressing CHO cells were seeded at 20,000-45,000 cells per well in a 96-well poly-D-lysine coated plate one or two days before the assay. Prior to the assay, the cells were washed once with PBS and then cultured in serum-free media overnight. On the day of the assay, a calcium indicator dye (Calcium 4, Molecular Devices) in assay buffer (HBSS with Ca^2+ and Mg^2+ and containing 20 mM Hepes and 0.3% fatty-acid free human serum albumin) was added to each well and incubation continued for 1 hour at 37° C. 10 μl of test compounds in 2.5% DMSO were added to the cells and incubation continued at room temperature for 30 minutes. Cells were then stimulated by the addition of 10 nM LPA and intracellular Ca^2+ measured using the Flexstation 3 (Molecular Devices). IC50, were determined using Graphpad prism analysis of drug titration curves.

Human LPA1 [3] = target: T1, Human LPA1; assay: Beta-Arrestin based assay for human LPA1R antagonists (PathHunter); details: CHO cells expressing ProLink tagged human LPA1R; antagonist mode, 0.5 micromolar LPA
Experimental: Beta-Arrestin Based Assays for Human LPA1R Antagonists and Agonists
A CHO cell line stably expressing the ProLink™ tagged human LPA1R was obtained from DiscoverX Inc, Fremont, Calif. In this system, β-Arrestin was fused to an N-terminal deletion mutant of β-galactosidase (termed the enzyme acceptor or EA), the human LPA1R was fused to a smaller (42 amino acids) weakly complementing fragment termed ProLink™. […] Cell handling and assays were performed according to protocols specified in the PathHunter® assays kits (DiscoverX, Fremont, Calif.). Assays were performed in quadruplicate in white 384 well plates. End point luminescence data were plotted and fit to a 4 parameter logistic function to obtain IC50 values. For antagonist assays, an […] concentration of agonist (LPA) equal to 0.5 micromolar was used.

T1 sequence (Q92633 whole entry): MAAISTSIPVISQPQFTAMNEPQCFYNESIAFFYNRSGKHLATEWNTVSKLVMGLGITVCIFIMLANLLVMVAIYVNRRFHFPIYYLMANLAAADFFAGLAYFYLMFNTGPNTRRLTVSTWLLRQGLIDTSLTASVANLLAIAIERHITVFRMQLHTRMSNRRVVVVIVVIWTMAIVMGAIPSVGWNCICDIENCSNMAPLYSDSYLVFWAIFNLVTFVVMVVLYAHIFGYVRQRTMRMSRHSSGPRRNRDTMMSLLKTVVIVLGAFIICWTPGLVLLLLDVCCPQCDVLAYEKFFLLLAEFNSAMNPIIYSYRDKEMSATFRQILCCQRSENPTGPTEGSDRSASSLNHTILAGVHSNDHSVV

IC50 (Human LPA1 [2]) [nM] | EC50 (Human LPA1 [3]) [nM] | SMILES | EC50 [1] [nM]
< 50 | < 50 | Cc1noc(-c2ccc(-c3ccc(C4(C(=O)O)CCOCC4)cc3)c(F)c2)c1NC(=O)O[C@H](C)c1ccccc1 [IT028] | < 50
< 50 | 50 to 500 | C[C@@H](OC(=O)Nc1c(C#Cc2cc3sc(C4(C(=O)O)CC4)cc3s2)nn2ccccc12)c1ccccc1 [IT073] | 50 to 500
< 50 | < 50 | Cc1noc(-c2ccc(-c3ccc(C4(CC(=O)O)CC4)cc3)cc2)c1NC(=O)O[C@H](C)c1ccccc1 [IT004] | < 50
50 to 500 | < 50 | C[C@@H](OC(=O)Nc1c(-c2ccc(-c3ccc(C4(C(=O)O)CC4)cc3)cc2)nn2ncccc12)c1ccccc1 [IT033] | < 50
< 50 | < 50 | C[C@@H](OC(=O)Nc1c(C#Cc2cc3sc(C4(C(=O)O)CC4)cc3s2)nnn1C)c1ccccc1 [IT069] | 50 to 500
> 500 | < 50 | Cc1nsc(-c2ccc(-c3cc4sc(C5(C(=O)O)CC5)cc4s3)cc2)c1NC(=O)O[C@H](C)c1ccccc1 [IT046] | 50 to 500
> 500 | > 500 | Cc1noc(-c2ccc(-c3ccc4c(C(=O)O)c[nH]c4c3)cc2)c1NC(=O)O[C@H](C)c1ccccc1 [IT009] | > 500
< 50 | < 50 | C[C@@H](OC(=O)Nc1c(-c2cc(F)c(-c3ccc(C4(C(=O)O)CC4)cc3)cc2F)nn2ncccc12)c1ccccc1 [IT061] | 50 to 500
50 to 500 | 50 to 500 | Cc1nnn(-c2ccc(-c3cc4sc(C5(C(=O)O)CC5)cc4s3)cc2)c1NC(=O)O[C@H](C)c1ccccc1 [IT051] | 50 to 500
< 50 | < 50 | C[C@@H](OC(=O)Nc1c(C#Cc2ccc3cc(C4(C(=O)O)CC4)ccc3c2)cnn1C)c1ccccc1 [IT014] | 50 to 500
> 500 | 50 to 500 | C[C@@H](OC(=O)Nc1c(CCc2cc3sc(C4(C(=O)O)CC4)cc3s2)cnn1C)c1ccccc1 [IT099] | > 500
> 500 | > 500 | C[C@@H](OC(=O)Nc1c(-c2ccc(-c3ccc(C4(C(=O)O)CC4)cc3)cc2)nc2n1CCN(S(C)(=O)=O)C2)c1ccccc1 [IT021] | > 500
50 to 500 | < 50 | C[C@@H](OC(=O)Nc1c(-c2ccc(-c3ccc(C4(C(=O)O)CC4)cc3)cc2)nc2ncccn12)c1ccccc1 [IT043] | 50 to 500
< 50 | < 50 | C[C@@H](OC(=O)Nc1c(C#Cc2cc3sc(C4(C(=O)O)CC4)cc3s2)cnn1C)c1ccccc1 [IT017] | < 50
< 50 | < 50 | CCn1ncc(C#Cc2cc3sc(C4(C(=O)O)CC4)cc3s2)c1NC(=O)O[C@H](C)c1ccccc1 [IT070] | < 50
50 to 500 | < 50 | Cc1nsc(C#Cc2cc3sc(C4(C(=O)O)CC4)cc3s2)c1NC(=O)O[C@H](C)c1ccccc1 [IT034] | 50 to 500
> 500 | > 500 | CNC(=O)N1CCn2c(nc(-c3ccc(-c4ccc(C5(C(=O)O)CC5)cc4)cc3)c2NC(=O)O[C@H](C)c2ccccc2)C1 [IT022] | > 500
50 to 500 | < 50 | C[C@@H](OC(=O)Nc1c(-c2cc(F)c(-c3cc4sc(C5(C(=O)O)CC5)cc4s3)cc2F)nnn1C)c1ccccc1 [IT071] | 50 to 500
50 to 500 | < 50 | C[C@@H](OC(=O)Nc1c(C#Cc2ccc3cc(C4(C(=O)O)CC4)ccc3c2)cnn1C1CC1)c1ccccc1 [IT015] | 50 to 500
